Article PMC12090182, “Repurposing of the RIPK1-Selective Benzo[1,4]oxazepin-4-one Scaffold for the Development of a Type III LIMK1/2 Inhibitor” (ACS Chemical Biology, 2025)
Where two headings read alike, the source gives them in different places.

System: HEK293T cells
Format: cell-based
Details: HEK293T
Procedure, shortened: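 HEK293T and U2OS cells (DMEM) and MRC-9 fibroblasts (EMEM) exposed to compounds at 1 and 10 μM. Live-cell confocal imaging of cell shape and fluorescence before and at 12, 24 and 48 h. Normalized to 0.1% DMSO; biological duplicates with SEM.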

[1] = 1 µM, 0 h, biological replicate 1
[2] = 1 µM, 0 h, biological replicate 2
[3] = 1 µM, 12 h, biological replicate 1
[4] = 1 µM, 12 h, biological replicate 2
[5] = 1 µM, 24 h, biological replicate 1
[6] = 1 µM, 24 h, biological replicate 2
[7] = 1 µM, 48 h, biological replicate 1
[8] = 1 µM, 48 h, biological replicate 2
[9] = 10 µM, 0 h, biological replicate 1
[10] = 10 µM, 0 h, biological replicate 2
[11] = 10 µM, 12 h, biological replicate 1
[12] = 10 µM, 12 h, biological replicate 2
[13] = 10 µM, 24 h, biological replicate 1
[14] = 10 µM, 24 h, biological replicate 2
[15] = 10 µM, 48 h, biological replicate 1
[16] = 10 µM, 48 h, biological replicate 2

CC(C)C(=O)Nc1ncc(-c2cc(C(F)F)nn2-c2c(Cl)cccc2Cl)s1 [LIMKi3]
Cell count normalized to cells treated with DMSO control [1]: 1.015 | Cell count per well [1]: 303 | Population Fragmented Nuclei (%) [1]: 7.35% | Population Healthy Nuclei (%) [1]: 47.06% | Population Pyknosed Nuclei (%) [1]: 45.59% | Population apoptotic cell (%) [1]: 38.71% | Population cell that influence microtubule strucutre (%) [1]: 19.53% | Population with increased mitochondrial mass (%) [1]: 60.16% | Population with membrane disruption (%) [1]: 0.00% | Cell count normalized to cells treated with DMSO control [2]: 1.15 | Cell count per well [2]: 263 | Population Fragmented Nuclei (%) [2]: 1.64% | Population Healthy Nuclei (%) [2]: 65.98% | Population Pyknosed Nuclei (%) [2]: 32.38% | Population apoptotic cell (%) [2]: 63.29% | Population cell that influence microtubule strucutre (%) [2]: 26.71% | Population with increased mitochondrial mass (%) [2]: 85.09% | Population with membrane disruption (%) [2]: 0.00% | Cell count normalized to cells treated with DMSO control [3]: 0.9245 | Cell count per well [3]: 421 | Population Fragmented Nuclei (%) [3]: 4.05% | Population Healthy Nuclei (%) [3]: 82.03% | Population Pyknosed Nuclei (%) [3]: 13.92% | Population apoptotic cell (%) [3]: 40.00% | Population cell that influence microtubule strucutre (%) [3]: 44.44% | Population with increased mitochondrial mass (%) [3]: 48.77% | Population with membrane disruption (%) [3]: 0.62% | Cell count normalized to cells treated with DMSO control [4]: 1.019 | Cell count per well [4]: 357 | Population Fragmented Nuclei (%) [4]: 6.58% | Population Healthy Nuclei (%) [4]: 83.39% | Population Pyknosed Nuclei (%) [4]: 10.03% | Population apoptotic cell (%) [4]: 53.13% | Population cell that influence microtubule strucutre (%) [4]: 34.59% | Population with increased mitochondrial mass (%) [4]: 63.16% | Population with membrane disruption (%) [4]: 0.38% | Cell count normalized to cells treated with DMSO control [5]: 0.9573 | Cell count per well [5]: 581 | Population Fragmented Nuclei (%) [5]: 6.08% | Population Healthy Nuclei (%) [5]: 81.40% | Population Pyknosed Nuclei (%) [5]: 12.52% | Population apoptotic cell (%) [5]: 38.57% | Population cell that influence microtubule strucutre (%) [5]: 25.27% | Population with increased mitochondrial mass (%) [5]: 30.55% | Population with membrane disruption (%) [5]: 1.32% | Cell count normalized to cells treated with DMSO control [6]: 1.028 | Cell count per well [6]: 464 | Population Fragmented Nuclei (%) [6]: 11.83% | Population Healthy Nuclei (%) [6]: 78.42% | Population Pyknosed Nuclei (%) [6]: 9.74% | Population apoptotic cell (%) [6]: 30.95% | Population cell that influence microtubule strucutre (%) [6]: 20.41% | Population with increased mitochondrial mass (%) [6]: 38.46% | Population with membrane disruption (%) [6]: 0.30% | Cell count normalized to cells treated with DMSO control [7]: 0.8177 | Cell count per well [7]: 827 | Population Fragmented Nuclei (%) [7]: 14.02% | Population Healthy Nuclei (%) [7]: 79.47% | Population Pyknosed Nuclei (%) [7]: 6.51% | Population apoptotic cell (%) [7]: 28.85% | Population cell that influence microtubule strucutre (%) [7]: 17.17% | Population with increased mitochondrial mass (%) [7]: 22.36% | Population with membrane disruption (%) [7]: 1.10% | Cell count normalized to cells treated with DMSO control [8]: 1.021 | Cell count per well [8]: 697 | Population Fragmented Nuclei (%) [8]: 11.19% | Population Healthy Nuclei (%) [8]: 83.72% | Population Pyknosed Nuclei (%) [8]: 5.09% | Population apoptotic cell (%) [8]: 14.29% | Population cell that influence microtubule strucutre (%) [8]: 14.58% | Population with increased mitochondrial mass (%) [8]: 22.05% | Population with membrane disruption (%) [8]: 0.69% | Cell count normalized to cells treated with DMSO control [9]: 1.049 | Cell count per well [9]: 313 | Population Fragmented Nuclei (%) [9]: 6.13% | Population Healthy Nuclei (%) [9]: 53.26% | Population Pyknosed Nuclei (%) [9]: 40.61% | Population apoptotic cell (%) [9]: 42.45% | Population cell that influence microtubule strucutre (%) [9]: 17.27% | Population with increased mitochondrial mass (%) [9]: 58.99% | Population with membrane disruption (%) [9]: 0.00% | Cell count normalized to cells treated with DMSO control [10]: 1.189 | Cell count per well [10]: 272 | Population Fragmented Nuclei (%) [10]: 5.14% | Population Healthy Nuclei (%) [10]: 69.17% | Population Pyknosed Nuclei (%) [10]: 25.69% | Population apoptotic cell (%) [10]: 58.46% | Population cell that influence microtubule strucutre (%) [10]: 23.43% | Population with increased mitochondrial mass (%) [10]: 84.57% | Population with membrane disruption (%) [10]: 0.00% | Cell count normalized to cells treated with DMSO control [11]: 0.8125 | Cell count per well [11]: 370 | Population Fragmented Nuclei (%) [11]: 7.52% | Population Healthy Nuclei (%) [11]: 78.06% | Population Pyknosed Nuclei (%) [11]: 14.42% | Population apoptotic cell (%) [11]: 54.35% | Population cell that influence microtubule strucutre (%) [11]: 58.63% | Population with increased mitochondrial mass (%) [11]: 84.34% | Population with membrane disruption (%) [11]: 0.80% | Cell count normalized to cells treated with DMSO control [12]: 1.053 | Cell count per well [12]: 369 | Population Fragmented Nuclei (%) [12]: 5.29% | Population Healthy Nuclei (%) [12]: 71.47% | Population Pyknosed Nuclei (%) [12]: 23.24% | Population apoptotic cell (%) [12]: 41.77% | Population cell that influence microtubule strucutre (%) [12]: 57.61% | Population with increased mitochondrial mass (%) [12]: 88.89% | Population with membrane disruption (%) [12]: 1.23% | Cell count normalized to cells treated with DMSO control [13]: 0.6376 | Cell count per well [13]: 387 | Population Fragmented Nuclei (%) [13]: 7.23% | Population Healthy Nuclei (%) [13]: 75.14% | Population Pyknosed Nuclei (%) [13]: 17.63% | Population apoptotic cell (%) [13]: 40.98% | Population cell that influence microtubule strucutre (%) [13]: 62.69% | Population with increased mitochondrial mass (%) [13]: 85.38% | Population with membrane disruption (%) [13]: 0.38% | Cell count normalized to cells treated with DMSO control [14]: 0.8682 | Cell count per well [14]: 392 | Population Fragmented Nuclei (%) [14]: 3.68% | Population Healthy Nuclei (%) [14]: 77.34% | Population Pyknosed Nuclei (%) [14]: 18.98% | Population apoptotic cell (%) [14]: 47.76% | Population cell that influence microtubule strucutre (%) [14]: 63.74% | Population with increased mitochondrial mass (%) [14]: 83.88% | Population with membrane disruption (%) [14]: 0.73% | Cell count normalized to cells treated with DMSO control [15]: 0.5082 | Cell count per well [15]: 514 | Population Fragmented Nuclei (%) [15]: 8.84% | Population Healthy Nuclei (%) [15]: 75.22% | Population Pyknosed Nuclei (%) [15]: 15.95% | Population apoptotic cell (%) [15]: 52.70% | Population cell that influence microtubule strucutre (%) [15]: 69.63% | Population with increased mitochondrial mass (%) [15]: 76.50% | Population with membrane disruption (%) [15]: 0.29% | Cell count normalized to cells treated with DMSO control [16]: 0.7148 | Cell count per well [16]: 488 | Population Fragmented Nuclei (%) [16]: 9.82% | Population Healthy Nuclei (%) [16]: 75.45% | Population Pyknosed Nuclei (%) [16]: 14.73% | Population apoptotic cell (%) [16]: 34.85% | Population cell that influence microtubule strucutre (%) [16]: 65.68% | Population with increased mitochondrial mass (%) [16]: 74.26% | Population with membrane disruption (%) [16]: 1.78%
